Columns and labels:
Test in all cases: drug sensitivity score (DSS), CellTox Green (DSS (AUC-based score)); higher = stronger drug effect (viability inhibition or cytotoxicity); extreme values may be limits of the assay
Settings in all cases: incubation time: 72 h
MDA-MB-231 = system: MDA-MB-231
Method in brief: (§1)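 The area under the fitted dose-response curve was used to calculate the drug sensitivity score. Cells from breast cancer lines were incubated for 72 h in 384-well plates with compound at 5 concentrations spaced 10-fold over a 10,000-fold range specific to each compound. Plates were read for CellTox Green and then CellTiter-Glo, and normalised to 0.1 % DMSO and a positive kill control.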

MFM-223 = system: MFM-223
Method in brief: as §1

MDA-MB-453 = system: MDA-MB-453
Method in brief: as §1

HCC1599 = system: HCC1599
Method in brief: as §1

HCC1937 = system: HCC1937
Method in brief: as §1

CAL-120 = system: CAL-120
Method in brief: as §1

CAL-148 = system: CAL-148
Method in brief: as §1

BT-549 = system: BT-549
Method in brief: as §1

CAL-51 = system: CAL-51
Method in brief: as §1

DU-4475 = system: DU-4475
Method in brief: as §1

CAL-85-1 = system: CAL-85-1
Method in brief: as §1

MDA-MB-468 = system: MDA-MB-468
Method in brief: as §1

Hs578T = system: Hs578T
Method in brief: as §1

MDA-MB-436 = system: MDA-MB-436
Method in brief: as §1

BT-474 = system: BT-474
Method in brief: as §1

HDQ-P1 = system: HDQ-P1
Method in brief: as §1

HCC1143 = system: HCC1143
Method in brief: as §1

MCF-10A = system: MCF-10A
Method in brief: as §1

SMILES	drug sensitivity score (MDA-MB-231)	drug sensitivity score (MFM-223)	drug sensitivity score (MDA-MB-453)	drug sensitivity score (HCC1599)	drug sensitivity score (HCC1937)	drug sensitivity score (CAL-120)	drug sensitivity score (CAL-148)	drug sensitivity score (BT-549)	drug sensitivity score (CAL-51)	drug sensitivity score (DU-4475)	drug sensitivity score (CAL-85-1)	drug sensitivity score (MDA-MB-468)	drug sensitivity score (Hs578T)	drug sensitivity score (MDA-MB-436)	drug sensitivity score (BT-474)	drug sensitivity score (HDQ-P1)	drug sensitivity score (HCC1143)	drug sensitivity score (MCF-10A)
Cn1cc(C[C@@H](N)C(=O)O)c2ccccc21 [1-methyl-D-tryptophan]	0	0	0	0	0	0	0	0	0	0	0	1.22	3.13	0	0	1.12	0	0
O=C(O)CC[C@H]1CC[C@@](c2cc(F)ccc2F)(S(=O)(=O)c2ccc(Cl)cc2)CC1 [MK-0752]	0	0	1.23	0	0	0		0	0	0	1.74	0	0	0	0	0	0	0
COc1cc2c(cc1-c1c(C)noc1C)ncc1[nH]c(=O)n([C@H](C)c3ccccn3)c12 [I-BET151]	1.07	0	0	0	0	0	0	0	4.63	0.559	5.11	5.63	0	1.57	0	5.77	0	2.02
C[C@@H](C(=O)O)c1ccc(-c2ccccc2)c(F)c1 [Tarenflurbil]	0	0	0	0	0	0	0	0	0	0	0	0		0	0.00754	0	0	0.986
Cc1c(N)nc([C@H](CC(N)=O)NC[C@H](N)C(N)=O)nc1C(=O)N[C@H](C(=O)N[C@H](C)[C@@H](O)[C@H](C)C(=O)N[C@H](C(=O)NCCc1nc(-c2nc(C(=O)NCCC[S+](C)C)cs2)cs1)[C@@H](C)O)[C@@H](OC1OC(CO)C(O)C(O)C1OC1OC(CO)C(O)C(OC(N)=O)C1O)c1cnc[nH]1 (some centres undefined) [Bleomycin]	4.48	0	0	0	0	0	8.42	1.71	19.8	0	0.93	0		2.42	0	0	0	0
CC(C)(C)Cn1c(N)nc2ccc(-c3[nH]c(C(C)(C)C)nc3-c3ccc(F)cc3)nc21	0.996	0	0	0	0	0.748	0	0	0	0	4.77	0		2.7	0	0	0	0
C[C@]12C=CC(=O)C=C1CC[C@@H]1[C@@H]2C(=O)C[C@@]2(C)[C@H]1CC[C@]2(O)C(=O)CO [Prednisone]	0	0	0	0	0	0.113	0	0	0	0	0	0		0	0	0	0	0
O=NN(CCCl)C(=O)NC1CCCCC1 [Lomustine]		0	0	0	0	0	0	0	0	0	0	0	0	0	0	0	0	0
CCCCCOC(=O)Nc1nc(=O)n([C@@H]2O[C@H](C)[C@@H](O)[C@H]2O)cc1F [Capecitabine]	0	3.74	0	0	0	0	0	0	0	0	0	0		0	0	0	0	0
CCN(CC)CCOc1ccc(C(=C(Cl)c2ccccc2)c2ccccc2)cc1 [Clomifene]	8.18	9.19	2.83	1.4	8.71	1.48	0	0	0	1.43	2.27	0	7.35	0	5.14		0	3.53
CN1CCN(c2nc(C3=C(c4c[nH]c5ccccc45)C(=O)NC3=O)c3ccccc3n2)CC1 [Sotrastaurin]	0	0	0	0	0	0		0	0	0	0	0	0	0	0	0	0	0
